Data taken from publication PMC10667233, “New cytotoxic dammarane type saponins from Ziziphus spina-christi” (Scientific Reports, 2023).
Values after ≈ are worked out from the molar mass of the structure shown. Read-outs that look alike come from different tables or passages of the source.

Columns and labels:
U87 = assay: MTS cell viability, U87 glioblastoma cells; format: cell-based; conditions: Homo sapiens, U-87 MG, 24 h, read-out: IC50 (µg/mL) values
Experimental: (§1) A549, U87, MDA-MB-231, and CT-26 cells were purchased from American Type Culture Collection (ATCC) (Manassas, VA, USA). The cells, A549 and CT-26 were cultured in RPMI-1640 supplemented with 1% Pen/Strep (100 U mL^–1, Gibco, Carlsbad, CA) and 10% FBS (Atlanta Biologicals, Flowery Branch, GA). While MDA-MB-231 and U87 cells were cultured in DMEM medium supplemented with 1% Pen/Strip and 10% FBS. Cells were incubated at 37 °C and 5% CO2 in humidified incubator (Sanyo Scientific Autoflow, Hudson, MA).
(§2) A549, U87, MDA-MB-231, and CT-26 cancer cells were plated in 96-well plates at a density of 2X10^4 cells/well in 100 μL of medium before the addition of different concentrations of the plant extracts. Untreated control group was incubated with^-100 µL/well of fresh media and^-methanol. After 24 h., the medium was aspirated and replaced by-100 µL of fresh media, and 20 µL of MTS^-reagent in each well (CellTiter 96^-Aqueous One^-Solution cell^-proliferation assay, Promega^-Corporation, Madison,^-WI,^-USA). The plates were then incubated at 37 °C with 5% CO2 for 2 h. The absorbance was measured at 490 nm using a Spectramax plus 384 Microplate reader (Molecular Devices, Sunnyvale, CA, USA). Relative cell viability values were expressed as the percentage of the absorbance from the treated wells compared to the control wells (untreated), given that the control wells viability was set to 100%. The cells were examined under a cell imaging system (EVOS FL Digital Microscope) using a 20X objective as well before getting rid of the plates. The half-maximal inhibitory concentrations (IC50) of pure compounds for four […] cancer cell lines were calculated.
(§3) Figure 3 The anticancer activities of the three pure compounds (1–3) isolated from Ziziphus spina-christi using the MTS assay on glioblastoma, breast cancer, lung, and colorectal carcinoma cells. Cancer cells lines A549 (a) U87 (b), MDA-MB-231 (c) and CT-26 […] were tested. […] Cells were stained with MTS reagents and cell survival was quantitated using the spectramax plate reader. […]

A549 = assay: MTS cell viability, A549 lung cancer cells; format: cell-based; conditions: Homo sapiens, read-out: IC50 (µg/mL) values
Experimental: as §1, §2, §3

MDA-MB-231 = assay: MTS cell viability, MDA-MB-231 breast cancer cells; format: cell-based; conditions: Homo sapiens, read-out: IC50 (µg/mL) values
Experimental: as §1, §2, §3

CT-26 = assay: MTS cell viability, CT-26 colorectal carcinoma cells; format: cell-based; conditions: read-out: IC50 (µg/mL) values
Experimental: as §1, §2, §3

sarcoma S180 = test system: sarcoma S180; design: method as in PMID 19960417; conditions: 50 μmol/kg, mice implanted with sarcoma S180; cited from earlier work
[1] = test system: breast cancer cell line MDA-MB-231; design: method as in PMID 19960417; conditions: 50 μmol/l, MDA-MB-231 in vitro; cited from earlier work
EBV-EA = conditions: cited from earlier work
A549 cells = test system: A549 cells; design: method as in PMID 26922140; conditions: concentration-dependent; cited from earlier work

In the case of `CC(C)=CC1CC(C)(O)C2C3CCC4C5(C)CCC(OC6OCC(O)C(OC7OC(CO)C(OC(=O)C=Cc8ccc(O)cc8)C(O)C7O)C6OC6OC(C)C(O)C(O)C6O)C(C)(C)C5CCC4(C)C34COC2(C4)O1` (stereo not drawn) [Compound 1, Christinin E], the IC50 (U87; U87, MTS) is reported as 5.7 ± 1.63 µg/mL (≈ 5.38 µM), the IC50 (A549; A549, MTS, 24 h) is reported as 9.53 ± 0.01 µg/mL (≈ 9 µM) and the IC50 (MDA-MB-231; MDA-MB-231, MTS, 24 h) is reported as 6.02 ± 1.5 µg/mL (≈ 5.68 µM). For the same compound, the IC50 (CT-26; CT26, CT-26, MTS, 24 h) was 0.7 ± 0.049 µg/mL (≈ 0.661 µM).
`CC(C)=CC1CC(C)(O)C2C3CCC4C5(C)CCC(OC6OCC(O)C(OC7OC(CO)C(OC(=O)C=Cc8ccc(OC(=O)C(=O)O)cc8)C(O)C7O)C6OC6OC(C)C(O)C(O)C6O)C(C)(C)C5CCC4(C)C34COC2(C4)O1` (stereo not drawn) [Compound 2, Christinin F] showed an IC50 (U87; U87, MTS) of 4.16 ± 0.87 µg/mL (≈ 3.68 µM), an IC50 (A549; A549, MTS, 24 h) of 4.89 ± 0.93 µg/mL (≈ 4.32 µM) and an IC50 (MDA-MB-231; MDA-MB-231, MTS, 24 h) of 5.81 ± 0.087 µg/mL (≈ 5.14 µM). The IC50 (CT-26; CT26, CT-26, MTS, 24 h) was 7.21 ± 0.35 µg/mL (≈ 6.37 µM).
In the case of `CC(C)=CC1CC(C)(O)C2C3CCC4C5(C)CCC(OC6OCC(O)C(OC7OC(CO)C(O)C(O)C7O)C6OC6OC(C)C(O)C(O)C6O)C(C)(C)C5CCC4(C)C34COC2(C4)O1` (stereo not drawn) [Compound 3, christinin A], the IC50 (U87) is reported as 7.28 ± 0.56 µg/mL (≈ 7.97 µM), the IC50 (A549; A549, 24 h) is reported as 5.67 ± 1.05 µg/mL (≈ 6.21 µM) and the IC50 (MDA-MB-231; MDA-MB-231, 24 h) is reported as 9.3 ± 0.19 µg/mL (≈ 10.2 µM). It also gave an IC50 (CT-26; CT26, 24 h) of 5.47 ± 1.3 µg/mL (≈ 5.99 µM).
In the case of `CC(C)=CC1C[C@](C)(O)[C@@H]2[C@@H]3CC[C@@H]4[C@@]5(C)CC[C@H](O[C@@H]6OC[C@H](O)[C@H](O[C@@H]7O[C@H](CO)[C@@H](O)[C@H](O)[C@H]7O)[C@H]6O[C@@H]6O[C@@H](CO)[C@H](O)[C@H]6O)C(C)(C)[C@@H]5CC[C@@]4(C)[C@]34CO[C@@]2(C4)O1` (stereo partly drawn) [bacopaside VII], the inhibition (sarcoma S180) is given as 84.13% and the “adhesion, migration, and matrigel invasion (in words)” value [1] is given as “markedly reduced”.
For `C=C(C)[C@@H]1CC[C@]2(C)[C@H](CC[C@@H]3[C@@H]([C@@](C)(O)CCC=C(C)C)CC[C@]32C)[C@@]1(C)CCC(=O)O` [dammarenolic acid], the IC50 (EBV-EA) is listed as 226 mol ratio/32 pmol TPA.
For bacopaside É, the inhibition (sarcoma S180) is given as 90.52% and the “adhesion, migration, and matrigel invasion (in words)” value [1] is given as “markedly reduced”.
For gypenoside Jh1, the “cytotoxicity (in words)” value (A549 cells) is listed as “strong cytotoxicity”.
